Where two headings read alike, the source gives them in different places.
What was measured:
[1] = system: Leptosphaeria nodorum—LEPTNO; assay: Glume Blotch of Wheat, in vivo whole plant, 24 Hour Protectant; settings: Leptosphaeria, 24 h, inoculated after 24 hours, read-out: LEPTNO in vivo 1 Day Protectant
[2] = system: Rhizoctonia solani (RHIZSO); assay: microbe, parasite or virus in culture; type: cell-based
[3] = system: Ustilago maydis (USTIMA); assay: microbe, parasite or virus in culture; type: cell-based
[4] = wheat (cultivar Yuma), sprayed at 100 ppm, control of fungal infection vs untreated plants
[5] = wheat plants sprayed at 100 ppm, control vs untreated plants

Row | Structure (SMILES) | pest or weed control at 100 ppm [1, 4] [%] | pest or weed control at 100 ppm [1, 5] [%] | RHIZSO in vitro Growth Inhibition [2] | USTIMA in vitro Growth Inhibition [3]
1 | COc1ccnc(C(=O)N[C@H]2COC(=O)[C@H](Cc3ccccc3)[C@@H](OC(=O)NC(C)C)[C@H](C)OC2=O)c1O [Compound 399] | 75 to 100 |  |  | 
2 | COc1ccnc(C(=O)Nc2ccc(OC3CC(C)(C)CC(C)(C)C3)cc2)c1O [Compound 458] |  | 75 to 100 |  | 
3 | COc1ccnc(C(=O)N[C@H]2COC(=O)[C@H](Cc3ccccc3)[C@@H](OC(=O)C3CC3)[C@H](C)OC2=O)c1O [Compound 387] | 75 to 100 |  |  | 
4 | COc1ccnc(C(=O)N[C@H]2COC(=O)[C@H](Cc3ccccc3)[C@@H](OC(=O)C3CCCC3)[C@H](C)OC2=O)c1O [Compound 391] | 75 to 100 |  |  | 
5 | COc1ccnc(C(=O)Nc2ccc(OCc3ccc(C(F)(F)F)cc3)cc2)c1O [Compound 448] | 75 to 100 |  |  | 
6 | COc1ccnc(C(=O)N[C@H]2COC(=O)[C@H](Cc3ccccc3)[C@@H](OC(=O)NC(C)(C)C)[C@H](C)OC2=O)c1O [Compound 400] | 75 to 100 |  |  | 
7 | COc1nc(O)c(C(=O)N[C@H]2COC(=O)[C@H](Cc3ccccc3)[C@@H](OC(=O)C(C)C)[C@H](C)OC2=O)nc1Cl [Compound 537] |  | 75 to 100 |  | 
8 | Cc1nc(O)c(C(=O)N[C@H]2COC(=O)[C@H](Cc3ccccc3)[C@@H](OC(=O)C(C)C)[C@H](C)OC2=O)nc1C [Compound 536] |  | 75 to 100 |  | 
9 | COc1ccnc(C(=O)NC2CC(C)(C)C(Cl)C(Cl)[C@H](C)[C@H]2C)c1O (stereo partly drawn) [Compound 281] |  |  | − (key: +: at least 80% growth inhibition; −: less than 80% growth inhibition) | − (key: +: at least 80% growth inhibition; −: less than 80% growth inhibition)
10 | COc1ccnc(C(=O)NCC2COCCOCCOCCOCCO2)c1O (stereo not drawn) [Compound 245] |  |  | − (key: +: at least 80% growth inhibition; −: less than 80% growth inhibition) | − (key: +: at least 80% growth inhibition; −: less than 80% growth inhibition)
11 | COc1ccnc(C(=O)N[C@H]2[C@@H](OC(C)=O)O[C@H](COC(C)=O)[C@@H](OC(C)=O)[C@@H]2OC(C)=O)c1O [Compound 335] |  |  | − (key: +: at least 80% growth inhibition; −: less than 80% growth inhibition) | − (key: +: at least 80% growth inhibition; −: less than 80% growth inhibition)
12 | COc1ccnc(C(=O)NC2C3(C)CCC(C3)C2(C)C)c1O (stereo not drawn) [Compound 288] |  |  | + (key: +: at least 80% growth inhibition; −: less than 80% growth inhibition) | − (key: +: at least 80% growth inhibition; −: less than 80% growth inhibition)
13 | COc1ccnc(C(=O)NC(C)c2ccc(C(F)(F)F)cc2)c1O (stereo not drawn) [Compound 247] |  |  | − (key: +: at least 80% growth inhibition; −: less than 80% growth inhibition) | − (key: +: at least 80% growth inhibition; −: less than 80% growth inhibition)
14 | COc1ccnc(C(=O)NCC#CCCl)c1O [Compound 239] |  |  | − (key: +: at least 80% growth inhibition; −: less than 80% growth inhibition) | − (key: +: at least 80% growth inhibition; −: less than 80% growth inhibition)
15 | CC(C)C(=O)OC1CCC(NC(=O)c2ncccc2O)CC1 (stereo not drawn) [Compound 210] |  |  | − (key: +: at least 80% growth inhibition; −: less than 80% growth inhibition) | − (key: +: at least 80% growth inhibition; −: less than 80% growth inhibition)
16 | COc1ccnc(C(=O)NCCCc2cccnc2)c1O [Compound 243] |  |  | − (key: +: at least 80% growth inhibition; −: less than 80% growth inhibition) | − (key: +: at least 80% growth inhibition; −: less than 80% growth inhibition)
17 | COc1ccnc(C(=O)NC2CC(C)(C)C(OC)C(C)(C)C2)c1O (stereo not drawn) [Compound 265] |  |  | − (key: +: at least 80% growth inhibition; −: less than 80% growth inhibition) | − (key: +: at least 80% growth inhibition; −: less than 80% growth inhibition)
18 | COc1ccnc(C(=O)NC2CC(c3ccco3)CC(C)(C)C2)c1O (stereo not drawn) [Compound 258] |  |  | − (key: +: at least 80% growth inhibition; −: less than 80% growth inhibition) | − (key: +: at least 80% growth inhibition; −: less than 80% growth inhibition)
19 | COc1ccnc(C(=O)NC2COC3(CC(C)(C)CC(C)(C)C3)OC2)c1O [Compound 315] |  |  | − (key: +: at least 80% growth inhibition; −: less than 80% growth inhibition) | − (key: +: at least 80% growth inhibition; −: less than 80% growth inhibition)

Row | Structure (SMILES) | pest or weed control at 100 ppm [1, 4] [%] | pest or weed control at 100 ppm [1, 5] [%] | RHIZSO in vitro Growth Inhibition [2] | USTIMA in vitro Growth Inhibition [3]
20 | COCCCc1ccc2c(c1)OC(C)C(NC(=O)c1nccc(OC)c1O)C2=O (stereo not drawn) [Compound 322] |  |  | + (key: +: at least 80% growth inhibition; −: less than 80% growth inhibition) | − (key: +: at least 80% growth inhibition; −: less than 80% growth inhibition)
21 | O=C(NCCCCc1ccccc1)c1ncccc1O [Compound 234] |  |  | − (key: +: at least 80% growth inhibition; −: less than 80% growth inhibition) | − (key: +: at least 80% growth inhibition; −: less than 80% growth inhibition)
22 | COc1ccnc(C(=O)N[C@@H](CO)C(=O)O[C@@H](C)[C@H](OC(=O)C(C)C)[C@@H](Cc2ccccc2)C(=O)O)c1O [Compound 341] |  |  | − (key: +: at least 80% growth inhibition; −: less than 80% growth inhibition) | − (key: +: at least 80% growth inhibition; −: less than 80% growth inhibition)
23 | O=C(NCc1ccc(Cl)c(Cl)c1)c1ncccc1O [Compound 221] |  |  | − (key: +: at least 80% growth inhibition; −: less than 80% growth inhibition) | − (key: +: at least 80% growth inhibition; −: less than 80% growth inhibition)
24 | C[C@H](NC(=O)c1ncccc1O)c1cccc2ccccc12 [Compound 232] |  |  | − (key: +: at least 80% growth inhibition; −: less than 80% growth inhibition) | − (key: +: at least 80% growth inhibition; −: less than 80% growth inhibition)
25 | COc1ccnc(C(=O)NC2CCC[C@H]3CC(CCC=C(C)C)=CC[C@@H]23)c1O (stereo partly drawn) [Compound 286] |  |  | + (key: +: at least 80% growth inhibition; −: less than 80% growth inhibition) | − (key: +: at least 80% growth inhibition; −: less than 80% growth inhibition)
26 | O=C(Nc1cccc(Cl)c1)c1ncccc1O [Compound 212] |  |  | − (key: +: at least 80% growth inhibition; −: less than 80% growth inhibition) | − (key: +: at least 80% growth inhibition; −: less than 80% growth inhibition)
27 | O=C(NCc1ccccc1Cl)c1ncccc1O [Compound 218] |  |  | + (key: +: at least 80% growth inhibition; −: less than 80% growth inhibition) | + (key: +: at least 80% growth inhibition; −: less than 80% growth inhibition)
28 | COc1ccnc(C(=O)NC2CC(C)(C)C(OC(=O)CC(C)C)C(C)(C)C2)c1O (stereo not drawn) [Compound 267] |  |  | − (key: +: at least 80% growth inhibition; −: less than 80% growth inhibition) | + (key: +: at least 80% growth inhibition; −: less than 80% growth inhibition)
29 | COc1ccccc1CNC(=O)c1ncccc1O [Compound 224] |  |  | − (key: +: at least 80% growth inhibition; −: less than 80% growth inhibition) | − (key: +: at least 80% growth inhibition; −: less than 80% growth inhibition)
30 | COc1ccnc(C(=O)NC2CCCCCCC2)c1O [Compound 282] |  |  | − (key: +: at least 80% growth inhibition; −: less than 80% growth inhibition) | − (key: +: at least 80% growth inhibition; −: less than 80% growth inhibition)
31 | COc1ccnc(C(=O)NC2CC3OC2C(C)C(OC(=O)C(C)C)C3C)c1O (stereo not drawn) [Compound 320] |  |  | − (key: +: at least 80% growth inhibition; −: less than 80% growth inhibition) | − (key: +: at least 80% growth inhibition; −: less than 80% growth inhibition)
32 | COc1ccnc(C(=O)NC2CCN(Cc3ccc(C)cc3)CC2)c1O [Compound 306] |  |  | − (key: +: at least 80% growth inhibition; −: less than 80% growth inhibition) | − (key: +: at least 80% growth inhibition; −: less than 80% growth inhibition)
33 | O=C(NCc1cccc(Cl)c1)c1ncccc1O [Compound 219] |  |  | + (key: +: at least 80% growth inhibition; −: less than 80% growth inhibition) | + (key: +: at least 80% growth inhibition; −: less than 80% growth inhibition)
34 | COc1ccnc(C(=O)N[C@@H]2CC3CC2C[C@@H]3COCc2cccc(C(F)(F)F)c2)c1O (stereo partly drawn) [Compound 297] |  |  | + (key: +: at least 80% growth inhibition; −: less than 80% growth inhibition) | − (key: +: at least 80% growth inhibition; −: less than 80% growth inhibition)
35 | COc1ccnc(C(=O)N[C@@H]2CC3CC2[C@@H](C(=O)OCCc2ccccc2)[C@H]3C(=O)OCC(C)C)c1O (stereo partly drawn) [Compound 301] |  |  | + (key: +: at least 80% growth inhibition; −: less than 80% growth inhibition) | − (key: +: at least 80% growth inhibition; −: less than 80% growth inhibition)
36 | COc1ccnc(C(=O)NC2CCC[C@H]3[C@H]4CC[C@H](C4)[C@@H]23)c1O (stereo partly drawn) [Compound 291] |  |  | + (key: +: at least 80% growth inhibition; −: less than 80% growth inhibition) | − (key: +: at least 80% growth inhibition; −: less than 80% growth inhibition)
37 | CCC1(C)OCC(NC(=O)c2nccc(OC)c2O)CO1 (stereo not drawn) [Compound 314] |  |  | − (key: +: at least 80% growth inhibition; −: less than 80% growth inhibition) | − (key: +: at least 80% growth inhibition; −: less than 80% growth inhibition)

From patent US7034035B2, “Fungicidal mono-, bi-, and tri-cycloheteroalkyl amides and their compositions, methods of use and preparation” (priority 1999, dated 2006)
